According to patent US6737383B1, “Herbicidal oxadiazolidines” (priority 1999, dated 2004):

Tests used:
wild oat = assay: Test B pre/postemergence wild oat; format: in vivo, Avena fatua
In short: (§1)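 Response is a visual 0-to-10 score relative to untreated plants, where 0 means no effect and 10 means complete control, taken twelve to sixteen days after application. Treatments went onto soil at planting and onto foliage of 1- to 4-leaf plants, using a surfactant-containing non-phytotoxic solvent.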

purple nutsedge = assay: Test B pre/postemergence purple nutsedge; format: in vivo, Cyperus rotundus
In short: as §1

giant foxtail = assay: Test B pre/postemergence giant foxtail; format: in vivo, Setaria faberii
In short: as §1

surinam grass = assay: Test B pre/postemergence surinam grass; format: in vivo, Brachiaria decumbens
In short: as §1

rape = assay: Test B pre/postemergence rape; format: in vivo, Brassica napus
In short: as §1

velvetleaf = assay: Test B pre/postemergence velvetleaf; format: in vivo, Abutilon theophrasti
In short: as §1

soybean = assay: Test B pre/postemergence soybean; format: in vivo, Glycine max
In short: as §1

cocklebur = assay: Test B pre/postemergence cocklebur; format: in vivo, Xanthium strumarium
In short: as §1

corn = assay: Test B pre/postemergence corn; format: in vivo, Zea mays
In short: as §1

sugar beet = assay: Test B pre/postemergence sugar beet; format: in vivo, Beta vulgaris
In short: as §1

bedstraw = assay: Test B pre/postemergence bedstraw; format: in vivo, Galium aparine
In short: as §1

pigweed = assay: Test B pre/postemergence pigweed; format: in vivo, Amaranthus retroflexus
In short: as §1

wheat = assay: Test B pre/postemergence wheat; format: in vivo, Triticum aestivum
In short: as §1

[1] = Preemergence, Rate 62 g/ha, scale of 0 to 10 where 0 is no effect and 10 is complete control
[2] = Preemergence, Rate 125 g/ha, 0 is no effect, 10 is complete control
[3] = Preemergence, Rate 250 g/ha, scale 0 to 10, 0 is no effect, 10 is complete control
[4] = Preemergence, Rate 500 g/ha, scale 0 to 10 (0 no effect, 10 complete control)
[5] = Rate 250 g/ha, Postemergence, scale 0 to 10, 0 is no effect, 10 is complete control
[6] = Rate 500 g/ha, Postemergence, scale 0 to 10
[7] = Postemergence, Rate 125 g/ha, scale of 0 to 10 where 0 is no effect and 10 is complete control
[8] = Rate 62 g/ha, Postemergence, scale of 0 to 10 where 0 is no effect and 10 is complete control

## CC1CCCCC1n1c(=O)on(C(=O)N(c2ccc(F)cc2F)C(C)C)c1=O (stereo not shown) [Compound 172]
Wild oat; [1]
  Wild oats plant response rating: 0
Wild oat; [2]
  Wild oats plant response rating (0 to 10 scale): 0
Wild oat; [3]
  Wild oats plant response rating: 3
Wild oat; [4]
  Wild oats plant response rating: 6
Wild oat; [5]
  Plant response rating, Wild oats: 0
Wild oat; [6]
  Wild oats plant response rating: 0
Purple nutsedge; [7]
  Nutsedge plant response rating: 0
Purple nutsedge; [1]
  Nutsedge plant response rating: 0
Purple nutsedge; [2]
  Nutsedge plant response rating (0 to 10 scale): 0
Purple nutsedge; [3]
  Nutsedge plant response rating: 0
Purple nutsedge; [4]
  Nutsedge plant response rating: 0
Purple nutsedge; [8]
  Nutsedge plant response rating: 0
Purple nutsedge; [5]
  Plant response rating, Nutsedge: 0
Purple nutsedge; [6]
  Nutsedge plant response rating: 0
Giant foxtail; [7]
  Giant foxtail plant response rating: 0
Giant foxtail; [1]
  Giant foxtail plant response rating: 8
Giant foxtail; [2]
  Giant foxtail plant response rating (0 to 10 scale): 9
Giant foxtail; [3]
  Giant foxtail plant response rating: 10
Giant foxtail; [4]
  Giant foxtail plant response rating: 10
Giant foxtail; [8]
  Giant foxtail plant response rating: 0
Giant foxtail; [5]
  Plant response rating, Giant foxtail: 0
Giant foxtail; [6]
  Giant foxtail plant response rating: 0
Surinam grass; [7]
  B. signalgrass plant response rating: 0
Surinam grass; [1]
  B. signalgrass plant response rating: 2
Surinam grass; [2]
  B. signalgrass plant response rating (0 to 10 scale): 5
Surinam grass; [3]
  B. signalgrass plant response rating: 5
Surinam grass; [4]
  B. signalgrass plant response rating: 8
Surinam grass; [8]
  B. signalgrass plant response rating: 0
Surinam grass; [5]
  Plant response rating, B. signalgrass: 0
Surinam grass; Rate 500 g/ha, Postemergence, scale 0 to 10, 0 no effect, 10 complete control
  B. signalgrass plant response rating: 0
rape; [7]
  Rape plant response rating: 0
rape; [1]
  Rape plant response rating: 0
rape; [2]
  Rape plant response rating (0 to 10 scale): 0
rape; [3]
  Rape plant response rating: 0
rape; [4]
  Rape plant response rating: 5
rape; [8]
  Rape plant response rating: 0
rape; [5]
  Plant response rating, Rape: 0
rape; [6]
  Rape plant response rating: 0
velvetleaf; [1]
  Velvetleaf plant response rating: 0
velvetleaf; [2]
  Velvetleaf plant response rating (0 to 10 scale): 0
velvetleaf; [3]
  Velvetleaf plant response rating: 0
velvetleaf; [4]
  Velvetleaf plant response rating: 3
velvetleaf; [5]
  Plant response rating, Velvetleaf: 0
velvetleaf; [6]
  Velvetleaf plant response rating: 2
soybean; [7]
  Soybean plant response rating: 3
soybean; [1]
  Soybean plant response rating: 0
soybean; [2]
  Soybean plant response rating (0 to 10 scale): 0
soybean; [3]
  Soybean plant response rating: 0
soybean; [4]
  Soybean plant response rating: 0
soybean; [8]
  Soybean plant response rating: 2
soybean; [5]
  Plant response rating, Soybean: 3
soybean; [6]
  Soybean plant response rating: 5
cocklebur; [7]
  Cocklebur plant response rating: 0
cocklebur; [1]
  Cocklebur plant response rating: 0
cocklebur; [2]
  Cocklebur plant response rating (0 to 10 scale): 0
cocklebur; [3]
  Cocklebur plant response rating: 0
cocklebur; [4]
  Cocklebur plant response rating: 0
cocklebur; [8]
  Cocklebur plant response rating: 0
cocklebur; [5]
  Plant response rating, Cocklebur: 0
cocklebur; [6]
  Cocklebur plant response rating: 2
corn; [7]
  Corn plant response rating: 0
corn; [1]
  Corn plant response rating: 0
corn; [2]
  Corn plant response rating (0 to 10 scale): 0
corn; [3]
  Corn plant response rating: 0
corn; [4]
  Corn plant response rating: 0
corn; [8]
  Corn plant response rating: 0
corn; [5]
  Plant response rating, Corn: 0
corn; [6]
  Corn plant response rating: 0
Sugar beet; [7]
  Sugarbeets plant response rating: 0
Sugar beet; [1]
  Sugarbeets plant response rating: 0
Sugar beet; [2]
  Sugarbeets plant response rating (0 to 10 scale): 2
Sugar beet; [3]
  Sugarbeets plant response rating: 5
Sugar beet; [4]
  Sugarbeets plant response rating: 5
Sugar beet; [8]
  Sugarbeets plant response rating: 0
Sugar beet; [5]
  Plant response rating, Sugarbeets: 0
Sugar beet; [6]
  Sugarbeets plant response rating: 0
bedstraw; [7]
  Bedstraw plant response rating: 0
bedstraw; [1]
  Bedstraw plant response rating: 0
bedstraw; [2]
  Bedstraw plant response rating (0 to 10 scale): 0
bedstraw; [3]
  Bedstraw plant response rating: 3
bedstraw; [4]
  Bedstraw plant response rating: 5
bedstraw; [8]
  Bedstraw plant response rating: 0
bedstraw; [5]
  Plant response rating, Bedstraw: 8
pigweed; [7]
  Redroot pigweed plant response rating: 0
pigweed; [1]
  Redroot pigweed plant response rating: 0
pigweed; [2]
  Redroot pigweed plant response rating (0 to 10 scale): 6
pigweed; [3]
  Redroot pigweed plant response rating: 8
pigweed; [4]
  Redroot pigweed plant response rating: 8
pigweed; [8]
  Redroot pigweed plant response rating: 0
pigweed; [5]
  Plant response rating, Redroot pigweed: 3
pigweed; [6]
  Redroot pigweed plant response rating: 7
wheat; [1]
  Wheat plant response rating: 0
wheat; [2]
  Wheat plant response rating (0 to 10 scale): 0
wheat; [3]
  Wheat plant response rating: 0
wheat; [4]
  Wheat plant response rating: 0
wheat; [5]
  Plant response rating, Wheat: 0
wheat; [6]
  Wheat plant response rating: 0
